How the values were obtained:
[1] = system: transgenic HD mice (N171-82Q); assay: Huntington's disease transgenic mouse model: survival; type: in vivo
Procedure: The effects of Compound B and vehicle on the survival of transgenic HD mice (N171-82Q) were evaluated. Thirteen mice (six male and seven female) were assigned to the Compound B treatment group, and fourteen mice (six male and eight female) were assigned to the vehicle treatment group. Treatment was continued until all the mice died.

[2] = system: rats with unilaterally transected optic nerve; assay: Optic nerve transection (optic nerve fiber counting); type: in vivo, Rattus norvegicus; details: for FIBER NUMBER: 10 mg/kg daily intraperitoneal
Procedure: (§1) All experiments complied with the Association for Research in Vision and Ophthalmology Statement for the Use of Animals in Ophthalmic and Vision Research. 82 male Brown Norway rats (Rattus norvegicus), each weighing approximately 250 gm, were treated using procedures approved by the Animal Care Committee of the Johns Hopkins University School of Medicine. The rats were housed with a 12 hour light/12 hour dark cycle and fed ad libitum.
OPTIC NERVE TRANSECTION: The optic nerve was transected unilaterally in 26 rats under intraperitoneal pentobarbital anesthesia. The conjunctiva was opened with scissors and the optic nerve exposed by traction on extraocular muscles. The transection was performed with microscissors 5 mm posterior to the globe, with specific attention to avoidance of injury to major ocular blood vessels. Immediately after transection, the retina was examined ophthalmoscopically to assure that the retinal arterial blood supply was not disrupted. The conjunctiva was closed with absorbable suture and the eye dressed with antibiotic ointment. Beginning on the day of transection, the rats were treated daily with intraperitoneal injections of either a vehicle (9 rats with 50 mM HEPES-buffered saline) or a NAALADase inhibitor (8 rats with 10 mg/kg of Compound A and 9 rats with 10 mg/kg of Compound B). 5 saline treated rats, 3 Compound A treated rats, and 4 Compound B treated rats were sacrificed at 2 weeks, and the remaining rats at 4 weeks, after transection.
(§2) OPTIC NERVE COUNTING: The rats were sacrificed by exsanguination under deep pentobarbital anesthesia. They were perfused through the heart with 2% paraformaldehyde/2% glutaraldehyde in 0.1 M phosphate buffer, pH 7.2, and the eyes with attached optic nerves were removed. A cross-section of the optic nerve from both experimental (glaucoma or transection) and control eyes was removed 1.5 mm posterior to the globe, 1 mm in thickness, and post-fixed in 2% osmium tetroxide in buffer. These were processed into epoxy resin, sectioned at 1 micron and stained with toluidine blue.
(§3) The area of the optic nerve cross-section was measured by outlining its outer border at 10× magnification on an image analysis system (Universal Imaging Corp., Westchester, Pa.) with Synsys digital camera and Metamorph software. Three area measurements were taken and the mean value was determined. To measure the density and fiber diameter distributions, images were captured with a 100× phase contrast objective from 10 different areas of each nerve. These were edited to eliminate non-neural objects and the size of each axon internal to the myelin sheath (its minimum diameter) and the density of axons/square mm were calculated for each image and nerve. The mean density was multiplied by total nerve area to yield fiber number for each nerve. The total fiber number in glaucoma or transection nerves was compared to the normal, fellow eye of each rat to yield a percent loss value. The number of axons counted among the 10 images was an approximately 20% sample of the 80–90,000 axons in normal rat nerves. The person measuring axon number was masked to the protocol conducted on the nerves.

[3] = system: rats with unilateral elevation of intraocular pressure; assay: Experimental rat glaucoma (IOP elevation, optic nerve fiber counting); type: in vivo; details: for FIBER NUMBER: 10 mg/kg daily intraperitoneal; for PERCENT DIFFERENCE in fiber number between glaucoma and normal eye: positive value indicates fewer fibers in the glaucoma eye
Procedure: Protective Effect of NAALADase Inhibitors in Experimental Rat Glaucoma
as §1
EXPERIMENTAL GLAUCOMA: Unilateral elevation of intraocular pressure (“IOP”) was produced in 56 rats by microinjection of hypertonic saline into episcleral veins, following procedures described in Morrison, J. et al., IOVS (March 1998) 39:526–531. Beginning on the day of IOP elevation, the rats were treated daily with intraperitoneal injections of either a vehicle (23 rats with 50 mM HEPES-buffered saline) or a NAALADase inhibitor (11 rats with 10 mg/kg of Compound A and 22 rats with 10 mg/kg of Compound B). 11 saline treated rats, 11 Compound A treated rats and 11 Compound B treated rats were sacrificed at 8 weeks, and the remaining rats at 12 weeks, after initial IOP elevation.
as §2, §3

[4] = system: transgenic HD mice of the N171-82Q strain; assay: Huntington's disease transgenic mouse model: rotarod and locomotion; type: in vivo
Procedure: Neuroprotective Effect of NAALADase Inhibitors in Transgenic Mouse Model of Huntington's Disease Behavioral Testing (Rotarod) Transgenic HD mice of the […]-[…] strain and non-transgenic littermates were treated with NAALADase inhibitor Compound B (30 mg/kg) or a vehicle from 10 weeks of age. The mice were placed on a rotating rod (“rotarod”). The length of time at which the mouse fell off the rotarod was recorded as a measure of motor coordination. […] The treatment with Compound B had no effect on the rotarod performance of normal non-HD mice. The total distance traveled by the mice was also recorded as a measure of overall locomotion.

[5] = system: TGF-β2; assay: Effect on TGF-β2 in in vitro ischemia model; type: cell-based; details: ischemic cell cultures, FIG. 2
Procedure: (§4) Effect of NAALADase Inhibition on TGF-β in In vitro Ischemia Model Compound C was added to ischemia cell cultures to determine its effect on TGF-β levels during stroke.

[6] = system: rats subjected to middle cerebral artery occlusion; assay: Neuroprotective effect with TGF-β neutralizing antibodies in MCAO rats; type: in vivo; details: FIG. 5
Text: The effect of TGF-β neutralizing antibodies on the neuroprotective effect of Compound C was also studied in rats following MCAO.
One of ordinary skill in the art can appreciate that the regulation of TGF-β's by NAALADase inhibitors may have implications not only in stroke, but also in other diseases, disorders and conditions including, without limitation, neurological diseases, psychiatric diseases, demyelinating diseases, prostate cancer, inflammation, diabetes and angiogenesis.

[7] = system: ischemic cell cultures; assay: Neuroprotective effect with growth factor neutralizing antibodies in in vitro ischemia model; type: cell-based
Procedure: TGF-β neutralizing antibodies were then added to the ischemic cell cultures.

[8] = system: TGF-β1; assay: TGF-β1 levels by microdialysis in MCAO rats; type: in vivo; details: during occlusion and reperfusion, FIG. 6
[9] = system: TGF-β1; assay: Effect on TGF-β1 in in vitro ischemia model; type: cell-based; details: ischemic cell cultures, FIG. 1
Procedure: as §4

[10] = system: chronic constrictive injury-induced rats; assay: Neuropathic pain in CCI model (sciatic nerve ligation); type: in vivo
Procedure: In vivo Assay of NAALADase Inhibitors on Neuropathic Pain in CCI Model
Sciatic nerve ligation, consisting of 4 ligatures tied loosely around the sciatic nerve at 1 mm intervals proximal to the nerve trifurcation, was performed on rats. […] The rats were habituated to a Hargreaves apparatus. An infrared heat source was directed onto the dorsal surface of each rat's hindpaws and the time taken for the rat to withdraw its paws was noted. The difference in scores between the latency of the response for the paw on the operated side versus the paw on the unoperated control side was determined.

[11] = 2 weeks survival after transection
[12] = 4 weeks survival after transection

Compound: O=C(O)CCC(CCCS)C(=O)O (stereo not drawn) [Compound B, 2-(3-sulfanylpropyl)pentanedioic acid]
- survival time ([1]; female transgenic HD mice, vs vehicle, p-value=0.03, FIG. 37): significantly prolonged survival time
- median survival time ([1]; transgenic HD mice, all, vehicle 158.5 days, p-value=0.07, FIG. 35): 184 days
- remaining axons relative to the saline-treated rats ([2]; 2 weeks after transection): twice
- PERCENT DIFFERENCE in fiber number [2, 11]: 75.3 ± 14.8%
- FIBER NUMBER [2, 11]: 19,550 ± 11,383
- PERCENT DIFFERENCE in fiber number [2, 12]: 93.4 ± 6.2%
- FIBER NUMBER [2, 12]: 5,162 ± 5,017
- FIBER NUMBER ([3]; 8 week group): 80785 ± 2121
- PERCENT DIFFERENCE in fiber number between glaucoma and normal eye ([3]; 8 week group): −0.82 ± 2.97%
- FIBER NUMBER ([3]; 12 week group): 90504 ± 1718
- PERCENT DIFFERENCE in fiber number between glaucoma and normal eye ([3]; 12 week group): −3.21 ± 2.86%
- rotarod performance ([4]; normal non-HD mice, 30 mg/kg): no effect
- rotarod performance (time on rotarod) ([4]; transgenic HD mice, 30 mg/kg from 10 weeks of age, vs vehicle, FIG. 33): stayed longer on the rotarod

Compound: O=C(O)CCC(CP(=O)(O)O)C(=O)O (stereo not drawn) [Compound C, 2-(phosphonomethyl)pentanedioic acid]
- TGF-β2 concentration [5]: increased concentration
- neuroprotective effect in presence of TGF-β neutralizing antibodies [6]: significantly attenuated the neuroprotective effect
- neuroprotective effect in presence of TGF-β neutralizing antibodies ([7]; FIG. 3): blocked the neuroprotective effect
- neuroprotective effect in presence of FGF antibody ([7]; FIG. 4): did not block the neuroprotective effect
- TGF-β1 levels [8]: significant rise in TGF-β1 levels
- TGF-β1 concentration [9]: increased concentration
- withdrawal latency difference scores between operated and unoperated paws ([10]; 50 mg/kg i.p. daily starting 10 days post surgery, FIG. 8): dramatically normalized the difference scores
- start of significant effect on difference scores ([10]; 50 mg/kg i.p. daily, persisted to end of study (21 days of daily dosing)): 11 days of drug treatment
